The source of these data is patent publication US8404677B2, “Kinase inhibitors” (Genosco, priority 2009, dated 2013).

A word on the IC50: it is the midpoint of a concentration-inhibition curve. Usually inhibition stands for the change of the read-out against control, counted positive when it falls.

Where a name gives a salt, the structure may show the parent alone.

One experiment deals with MTC-TT. Nature of the experiment: Cell viability assay: RET inhibition. In kind it is cell-based, human. As to conditions: for IC50: Homo sapiens, 48 h, two days after drug treatment; for inhibition level compared with Vandetinib and Sunitinib: RET induced cancer cell line. Here is the method: In order to address RET dependent cell viability, the medullary thyroid carcinoma cell line, MTC-TT representing MEN2A was utilized to test compounds of the invention. MTC-TT were cultured at RPMI containing 15 bovine calf serum (Hyclon™ of Thermo™) and supplemented with 2 mM L-Glutamine. The cells were grown at a density of 5×10^4 cells/100 μL/well in duplicate in 96-well plates for one day and treated with different concentrations of test compound. Cell viability for MTC-TT two days after drug treatment was measured by Cell Titer 96 Aqueous One Solution Reagent (Promega™) according to the manufacture instructions. The IC50 value of test compound was calculated at Gradpad Prism 5 unless specified otherwise.

For experiment [1], the system named is MV4-11 cells expressing human FLT3-ITD. Nature of the experiment: Cell viability assay: FLT3-ITD-positive cells. It counts as cell-based. As to conditions: for inhibition level compared with Vandetinib and Sunitinib: FLT3 ITD induced cancer cell line; for IC50: Homo sapiens, 72-hour incubation, read-out: MV-4-11 cell viability IC50. On the procedure: Compounds of the invention were tested for cell viability effect on MV4-11 cells. For cell viability assay, MV4-11 cells expressing human FLT3-ITD were obtained from the American Type Culture Collection (ATCC, Manassas, Va.). This cell line was maintained with an Roswell Park Memorial Institute (RPMI) medium (HyClone™) containing 10 bovine calf serum (BCS; Hyclone™) supplemented iron. […] CellTiter Aqueous assay (Promega™) was also performed in parallel as an orthogonal assay. IC50 values were calculated using nonlinear regression and defined as the concentration needed for a 50 reduction in luminescence or absorbance treated versus untreated control cells (Prism™ Software).

A further experiment has as its target T1, truncated human JAK2 (Homo sapiens, UniProt O60674).
T1 construct: truncated human FAK, RET, FLT3, JAK2, and LRRK2 (CARNA BIOSCIENCES™); purchased Carna Biosciences
As to the kind of experiment: Inhibition of enzymatic kinase activity (LANCE Ulight). In kind it is biochemical. On the procedure:
(§1) Inhibition of Enzymatic SYK, ZAP70, PYK2, FAK, PIM1, RET, FLT3, JAK2 and LRRK2 Kinase Activity
(§2) Compounds of the invention were initially diluted to 10 mM in 100% DMSO (CALBIOCHEM™) for storage and made into kinase buffer solution to create a compound concentration ranging from 1 uM and 10 uM. Serial dilutions of compounds of the invention were dispensed into a 96-well plate (GREINER BIOSCIENCES™) at 6 μL each. Purified full-length human SYK, ZAP70, PIM1, PYK2 and truncated human FAK, RET, FLT3, JAK2, and LRRK2 (CARNA BIOSCIENCES™) were diluted in kinase buffer and added to the compound solutions and pre-incubated for 30 minutes at room temperature (1 hour for PYK2). […] The reaction mixture was incubated for 1 hour (2 hours for PYK2). Following the incubation, the stop solution made with EDTA, water, and Lance detection buffer ([…]™) was added (12 μL each) to stop phosphorylation.

The target of another experiment is T2, truncated human FLT3 (Homo sapiens, UniProt P36888).
T2 construct: truncated human FAK, RET, FLT3, JAK2, and LRRK2 (CARNA BIOSCIENCES™); purchased Carna Biosciences
T2 sequence (P36888 564-993 limits assumed): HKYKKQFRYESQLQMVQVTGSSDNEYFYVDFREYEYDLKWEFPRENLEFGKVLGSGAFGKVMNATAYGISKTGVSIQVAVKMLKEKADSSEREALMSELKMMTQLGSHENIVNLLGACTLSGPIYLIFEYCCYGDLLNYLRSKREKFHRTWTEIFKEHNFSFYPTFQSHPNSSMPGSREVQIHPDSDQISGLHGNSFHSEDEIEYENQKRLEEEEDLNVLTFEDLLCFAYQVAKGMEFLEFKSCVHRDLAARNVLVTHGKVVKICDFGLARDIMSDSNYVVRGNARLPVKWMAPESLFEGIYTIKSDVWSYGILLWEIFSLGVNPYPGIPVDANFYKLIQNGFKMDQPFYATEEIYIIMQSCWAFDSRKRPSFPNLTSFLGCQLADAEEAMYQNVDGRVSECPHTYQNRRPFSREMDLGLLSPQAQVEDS
The description is as above. In kind it is biochemical. Here is the method: as §1, §2

The target in a further experiment is T3, truncated human RET (Homo sapiens, UniProt P07949).
T3 construct: truncated human FAK, RET, FLT3, JAK2, and LRRK2 (CARNA BIOSCIENCES™); purchased Carna Biosciences
T3 sequence (P07949 658-1114 limits assumed): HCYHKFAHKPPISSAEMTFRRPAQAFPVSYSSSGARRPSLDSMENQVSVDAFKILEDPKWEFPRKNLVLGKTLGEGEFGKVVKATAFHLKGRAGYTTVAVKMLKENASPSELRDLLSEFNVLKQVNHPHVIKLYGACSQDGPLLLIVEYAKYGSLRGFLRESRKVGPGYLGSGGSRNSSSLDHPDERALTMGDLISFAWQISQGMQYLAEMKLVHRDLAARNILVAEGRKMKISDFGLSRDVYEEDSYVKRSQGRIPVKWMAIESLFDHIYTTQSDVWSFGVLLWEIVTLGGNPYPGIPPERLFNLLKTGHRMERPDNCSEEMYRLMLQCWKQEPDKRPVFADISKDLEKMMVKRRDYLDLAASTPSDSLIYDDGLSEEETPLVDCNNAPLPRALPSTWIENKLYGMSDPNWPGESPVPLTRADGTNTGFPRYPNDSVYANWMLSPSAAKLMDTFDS
The experiment is described as above. In kind it is biochemical. On the procedure:
as §1, §2

In another experiment the target is T4, human PIM1 (Homo sapiens, UniProt P11309).
T4 construct: Purified full-length human SYK, ZAP70, PIM1, PYK2; purchased Carna Biosciences
The experiment is described as above. It counts as biochemical. As to conditions: at 1 μM concentration; for inhibition at 1 µM: read-out: PIM1 percentage inhibition. On the procedure: as §1
as §2, with “phosphorylation. […] Substrate phosphorylation was a function of the 665 nm emission measured following the addition of the detection solution and 50 minutes of incubation.” for “phosphorylation.”

A further experiment has as its target SYK (Homo sapiens, UniProt P43405). The experiment is described as above. It counts as biochemical. On the set-up: Purified full-length human SYK, ZAP70, PIM1, PYK2; purchased Carna Biosciences. As to conditions: at 1 μM concentration; for inhibition at 1 µM: read-out: SYK percentage inhibition. Here is the method:
as §1, §2

Another experiment concerns the target PYK2 (Homo sapiens, UniProt Q14289). The description is as above. It counts as biochemical. On the set-up: Purified full-length human SYK, ZAP70, PIM1, PYK2; purchased Carna Biosciences. As to conditions: at 1 μM concentration; for inhibition at 1 µM: read-out: PYK2 percentage inhibition. Here is the method: as §1, §2
The target of another experiment is T5, human ZAP70 (Homo sapiens, UniProt P43403).
T5 construct: Purified full-length human SYK, ZAP70, PIM1, PYK2; purchased Carna Biosciences
T5 sequence (P43403 1-619): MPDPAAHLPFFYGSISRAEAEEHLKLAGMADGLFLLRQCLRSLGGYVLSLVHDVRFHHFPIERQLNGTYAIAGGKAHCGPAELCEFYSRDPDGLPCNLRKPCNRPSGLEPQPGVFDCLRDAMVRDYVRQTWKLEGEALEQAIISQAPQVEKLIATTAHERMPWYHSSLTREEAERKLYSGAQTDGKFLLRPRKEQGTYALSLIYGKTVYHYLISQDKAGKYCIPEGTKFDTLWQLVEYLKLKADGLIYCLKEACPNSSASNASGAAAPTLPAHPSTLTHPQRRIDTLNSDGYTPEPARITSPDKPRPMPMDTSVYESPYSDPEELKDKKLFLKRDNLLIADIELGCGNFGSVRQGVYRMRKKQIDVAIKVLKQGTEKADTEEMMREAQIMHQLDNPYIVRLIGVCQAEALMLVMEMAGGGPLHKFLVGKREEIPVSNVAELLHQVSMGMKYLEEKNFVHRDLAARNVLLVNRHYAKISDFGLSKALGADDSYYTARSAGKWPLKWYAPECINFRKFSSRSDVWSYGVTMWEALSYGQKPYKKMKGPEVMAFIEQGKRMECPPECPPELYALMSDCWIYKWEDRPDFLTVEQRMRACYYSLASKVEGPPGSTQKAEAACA
Described as above. It counts as biochemical. The following applies: at 1 μM concentration; for inhibition at 1 µM: read-out: ZAP70 percentage inhibition. On the procedure: as §1, §2

The target in a further experiment is T6, truncated human FAK (Homo sapiens, UniProt Q05397).
T6 construct: truncated human FAK, RET, FLT3, JAK2, and LRRK2 (CARNA BIOSCIENCES™); purchased Carna Biosciences
The experiment is described as above. In kind it is biochemical. As to conditions: at 1 μM concentration; for inhibition at 1 µM: read-out: FAK percentage inhibition. On the procedure:
as §1, §2

Sequence of PYK2 (Q14289 whole entry): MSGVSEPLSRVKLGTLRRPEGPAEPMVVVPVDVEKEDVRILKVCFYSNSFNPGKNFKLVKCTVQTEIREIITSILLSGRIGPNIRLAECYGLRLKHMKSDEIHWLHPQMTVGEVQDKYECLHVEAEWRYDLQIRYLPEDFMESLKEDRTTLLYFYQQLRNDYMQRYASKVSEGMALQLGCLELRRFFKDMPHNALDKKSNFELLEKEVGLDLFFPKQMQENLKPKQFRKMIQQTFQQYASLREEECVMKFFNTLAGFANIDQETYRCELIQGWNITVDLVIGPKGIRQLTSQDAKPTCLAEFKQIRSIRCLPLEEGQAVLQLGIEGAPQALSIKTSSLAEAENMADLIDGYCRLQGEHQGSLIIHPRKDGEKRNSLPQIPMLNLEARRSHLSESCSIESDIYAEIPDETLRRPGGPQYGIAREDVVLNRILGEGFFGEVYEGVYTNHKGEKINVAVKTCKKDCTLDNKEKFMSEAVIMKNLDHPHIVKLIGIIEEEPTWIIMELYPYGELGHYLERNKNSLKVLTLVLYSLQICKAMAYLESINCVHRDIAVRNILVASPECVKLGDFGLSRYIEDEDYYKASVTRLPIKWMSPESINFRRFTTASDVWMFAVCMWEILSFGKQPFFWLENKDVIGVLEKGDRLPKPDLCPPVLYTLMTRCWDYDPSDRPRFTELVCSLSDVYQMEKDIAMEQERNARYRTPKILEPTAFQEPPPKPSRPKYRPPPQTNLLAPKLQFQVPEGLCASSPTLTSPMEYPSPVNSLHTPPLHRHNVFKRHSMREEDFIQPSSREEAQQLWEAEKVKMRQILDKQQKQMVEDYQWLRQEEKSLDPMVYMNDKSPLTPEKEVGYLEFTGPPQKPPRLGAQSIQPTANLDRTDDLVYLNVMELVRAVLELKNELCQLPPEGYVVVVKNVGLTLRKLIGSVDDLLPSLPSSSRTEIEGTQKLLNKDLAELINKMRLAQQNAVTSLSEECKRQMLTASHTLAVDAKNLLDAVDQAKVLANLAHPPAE
T6 sequence (Q05397 376-1052 limits assumed): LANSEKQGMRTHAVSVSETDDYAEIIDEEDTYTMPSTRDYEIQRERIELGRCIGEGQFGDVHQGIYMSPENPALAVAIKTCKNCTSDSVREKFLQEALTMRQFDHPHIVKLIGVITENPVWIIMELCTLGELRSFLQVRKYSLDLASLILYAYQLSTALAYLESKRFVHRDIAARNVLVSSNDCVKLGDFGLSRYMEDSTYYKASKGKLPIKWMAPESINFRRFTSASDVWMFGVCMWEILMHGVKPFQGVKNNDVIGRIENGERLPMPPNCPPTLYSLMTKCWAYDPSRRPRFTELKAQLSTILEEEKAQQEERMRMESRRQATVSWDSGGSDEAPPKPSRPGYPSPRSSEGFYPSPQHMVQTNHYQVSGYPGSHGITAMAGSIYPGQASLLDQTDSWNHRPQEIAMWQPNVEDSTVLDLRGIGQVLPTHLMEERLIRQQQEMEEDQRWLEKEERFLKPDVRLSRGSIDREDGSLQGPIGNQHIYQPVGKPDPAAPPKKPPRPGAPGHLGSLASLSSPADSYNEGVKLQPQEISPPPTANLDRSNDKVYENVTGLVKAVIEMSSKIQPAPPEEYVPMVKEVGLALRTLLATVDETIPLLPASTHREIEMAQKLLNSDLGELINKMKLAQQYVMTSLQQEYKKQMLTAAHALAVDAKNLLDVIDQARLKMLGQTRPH
T4 sequence (P11309 whole entry): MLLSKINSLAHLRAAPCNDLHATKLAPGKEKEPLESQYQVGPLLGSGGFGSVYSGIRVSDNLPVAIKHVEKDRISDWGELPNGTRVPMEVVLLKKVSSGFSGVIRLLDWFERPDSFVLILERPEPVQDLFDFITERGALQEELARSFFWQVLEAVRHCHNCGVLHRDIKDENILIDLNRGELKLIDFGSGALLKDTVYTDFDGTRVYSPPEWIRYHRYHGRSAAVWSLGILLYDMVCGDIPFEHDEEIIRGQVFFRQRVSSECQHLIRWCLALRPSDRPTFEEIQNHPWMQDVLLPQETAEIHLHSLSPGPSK
T1 sequence (O60674 826-1132 limits assumed): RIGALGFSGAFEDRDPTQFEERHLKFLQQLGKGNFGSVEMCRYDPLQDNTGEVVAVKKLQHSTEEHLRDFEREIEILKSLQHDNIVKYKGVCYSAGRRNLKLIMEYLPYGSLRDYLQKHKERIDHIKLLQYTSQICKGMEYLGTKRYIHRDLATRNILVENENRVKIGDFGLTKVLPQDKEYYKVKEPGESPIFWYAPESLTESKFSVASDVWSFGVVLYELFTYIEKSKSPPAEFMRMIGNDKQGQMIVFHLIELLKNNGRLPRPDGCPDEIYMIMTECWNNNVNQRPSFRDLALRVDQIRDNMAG

For `Cl.O=c1[nH]ccc2nc(N[C@H]3CCNC3)nc(Nc3ccc(C(F)(F)F)cc3)c12` [Compound 8, (S)-2-(pyrrolidin-3-ylamino)-4-(4-(trifluoromethyl)phenylamino)pyrido[4,3-d]pyrimidin-5(6H)-one hydrochloride], the IC50 in the experiment on MTC-TT came out at 14 nM; in experiment [1] (MV4-11), 0.1 nM; on truncated human JAK2, 12.7 nM; against truncated human FLT3, 0.2 nM; on truncated human RET, 2.6 nM. The “times higher inhibition in IC50 than Vandetanib and Sunitinib” value in the experiment on MTC-TT (MTC-TT) stood at 6 time. In addition, the “inhibition level compared with Vandetinib and Sunitinib” value in the experiment on MTC-TT was “inhibition level greater than those exhibited by Vandetinib and Sunitinib”; in [1], “inhibition level greater than those exhibited by Vandetinib and Sunitinib”. In experiment [1] (MV4-11), the “times higher inhibition in IC50 than Sunitinib and PKC-412” value was 10-30 time.
Take `NC1CCC(Nc2nc(Nc3cccc(C(F)(F)F)c3)c3c(=O)[nH]ccc3n2)CC1` [Compound 9, 2-((1R,4R)-4-aminocyclohexylamino)-4-(3-(trifluoromethyl)phenylamino)pyrido[4,3-d]pyrimidin-5(6H)-one]: the inhibition at 1 µM was 64% at human PIM1; 84% on SYK; 89% at PYK2; 32% at human ZAP70; 83% on truncated human FAK.
The matching figures for `NC1CCN(c2nc(Nc3cccc(Br)c3)c3c(=O)[nH]ccc3n2)CC1` [Compound 84, 2-(4-aminopiperidin-1-yl)-4-(3-bromophenylamino)pyrido[4,3-d]pyrimidin-5(6H)-one hydrochloride]: 71.2%, 95.7%, 92.8%, 54.6% and 92.9%.
As to `CS(=O)(=O)c1ccc(Nc2nc(N3CCC(O)CC3)nc3cc[nH]c(=O)c23)cc1` [Compound 126, 2-(4-hydroxypiperidin-1-yl)-4(4-(methylsulfonyl)phenylamino)pyrido[4,3d]pyrimidin-5(6H)-one], the inhibition at 1 µM on human PIM1 is 12.7%; on SYK, 95.1%; on PYK2, 39.5%; on human ZAP70, 49.3%; at truncated human FAK, 80.8%.
As to `Cl.O=c1[nH]ccc2nc(N[C@H]3CCNC3)nc(Nc3ccc(N4CCOCC4)cc3)c12` [Compound 136, (S)-4-(4-morpholinophenylamino)-2-(pyrrolidin-3-ylamino)pyrido[4,3-d]pyrimidin-5(6H)-one hydrochloride], the IC50 was 33 nM in the experiment with MTC-TT; 0.1 nM in experiment [1] (MV4-11); 3.9 nM against truncated human JAK2; 0.1 nM at truncated human FLT3; 1.3 nM at truncated human RET. The “inhibition level compared with Vandetinib and Sunitinib” value in the experiment on MTC-TT is “inhibition level greater than those exhibited by Vandetinib and Sunitinib”; in experiment [1], “inhibition level greater than those exhibited by Vandetinib and Sunitinib”.
As for `Cn1ccc2nc(N3CCC(O)CC3)nc(Nc3cccc(C(F)(F)F)c3)c2c1=O` [Compound 168, 2-(4-hydroxypiperidine-1-yl)-6-methyl-4-(3-(trifluoromethyl)phenylamino)pyrido[4,3-d]pyrimidin-5(6H)-one], the inhibition at 1 µM at human PIM1 amounted to 7.3%; at SYK, 3%; at PYK2, 1%; at human ZAP70 it was 6.2%; at truncated human FAK, 4.9%.
`CCN(CC)CCNC(=O)c1c(C)[nH]c(/C=C2\C(=O)Nc3ccc(F)cc32)c1C` [Sunitinib, reference compound]: the results for the IC50 (in the experiment with MTC-TT; in [1] (MV4-11)) were 117 nM and 3.8 nM, respectively.
On human PIM1, “(2-((1R,2S)-2-aminocyclohexylamino)-4-(3-(trifluoromethyl)phenylamino)pyrido[4,3-d]pyrimidin-5(6H)-one with (2-((1S,2R)-2-aminocyclohexylamino)-4-(3-(trifluoromethyl)phenylamino)pyrido[4,3-d]pyrimidin-5(6H)-one [Compound 101]” came in with a PIM1 percentage inhibition of 61%. In addition, the SYK percentage inhibition at SYK was found to be 90%. For the same compound, the PYK2 percentage inhibition at PYK2 is given as 85%. In addition, the ZAP70 percentage inhibition at human ZAP70 worked out at 45%. Also, the FAK percentage inhibition at truncated human FAK came out at 77%.
